{"source": "paper PMC7997578", "about": "“Design, Synthesis, Dynamic Docking, Biochemical Characterization, and in Vivo Pharmacokinetics Studies of Novel Topoisomerase II Poisons with Promising Antiproliferative Activity” (Journal of Medicinal Chemistry, 2020)", "key": {"[1]": {"tested_on": "HeLa cells", "assay": "cell viability MTT assay, HeLa", "type": "cell-based, human", "conditions": "HeLa cervical cancer cells, mean ± SD of two experiments, read-out: HeLa antiproliferative activity IC50", "experimental": "(§1) The antiproliferative activity of all compounds was evaluated in (i) DU145, an androgen-independent prostate cancer cell line; (ii) HeLa, a cervical cancer cell line; and (iii) A549, a lung adenocarcinoma cell line (Table 1). […] Undoubtedly, this preliminary cytotoxicity data will need further characterization, also in relation to the in vitro activity of these compounds.\n(§2) Human cancer cell lines A549 (lung adenocarcinoma, ATCC CCL-185), DU-145 (androgen-independent prostate cancer, ATCC HTB-81), and HeLa (cervical carcinoma, ATCC CCL-2) were obtained from ATCC. Cells were routinely grown in minimal essential medium containing Eagle’s salts and L-glutamine supplemented with 10% heat-inactivated FBS in a humidified atmosphere of 5% CO2 at 37 °C. To assess the antiproliferative activity of the compounds, cells were seeded at a density of 2500 cells/well (HeLa) or 5000 cells/well (A549, DU-145) in 96-well plates, and cell viability was measured using the MTT assay as described previously.[39] Values are reported as the mean ± SD of two independent experiments."}, "[2]": {"target": "T1, topoII/DNA cleavage complex (Homo sapiens, UniProt P11388)", "T1 construct": "purchased Inspiralis", "T1 sequence (P11388 whole entry, one chain of several)": "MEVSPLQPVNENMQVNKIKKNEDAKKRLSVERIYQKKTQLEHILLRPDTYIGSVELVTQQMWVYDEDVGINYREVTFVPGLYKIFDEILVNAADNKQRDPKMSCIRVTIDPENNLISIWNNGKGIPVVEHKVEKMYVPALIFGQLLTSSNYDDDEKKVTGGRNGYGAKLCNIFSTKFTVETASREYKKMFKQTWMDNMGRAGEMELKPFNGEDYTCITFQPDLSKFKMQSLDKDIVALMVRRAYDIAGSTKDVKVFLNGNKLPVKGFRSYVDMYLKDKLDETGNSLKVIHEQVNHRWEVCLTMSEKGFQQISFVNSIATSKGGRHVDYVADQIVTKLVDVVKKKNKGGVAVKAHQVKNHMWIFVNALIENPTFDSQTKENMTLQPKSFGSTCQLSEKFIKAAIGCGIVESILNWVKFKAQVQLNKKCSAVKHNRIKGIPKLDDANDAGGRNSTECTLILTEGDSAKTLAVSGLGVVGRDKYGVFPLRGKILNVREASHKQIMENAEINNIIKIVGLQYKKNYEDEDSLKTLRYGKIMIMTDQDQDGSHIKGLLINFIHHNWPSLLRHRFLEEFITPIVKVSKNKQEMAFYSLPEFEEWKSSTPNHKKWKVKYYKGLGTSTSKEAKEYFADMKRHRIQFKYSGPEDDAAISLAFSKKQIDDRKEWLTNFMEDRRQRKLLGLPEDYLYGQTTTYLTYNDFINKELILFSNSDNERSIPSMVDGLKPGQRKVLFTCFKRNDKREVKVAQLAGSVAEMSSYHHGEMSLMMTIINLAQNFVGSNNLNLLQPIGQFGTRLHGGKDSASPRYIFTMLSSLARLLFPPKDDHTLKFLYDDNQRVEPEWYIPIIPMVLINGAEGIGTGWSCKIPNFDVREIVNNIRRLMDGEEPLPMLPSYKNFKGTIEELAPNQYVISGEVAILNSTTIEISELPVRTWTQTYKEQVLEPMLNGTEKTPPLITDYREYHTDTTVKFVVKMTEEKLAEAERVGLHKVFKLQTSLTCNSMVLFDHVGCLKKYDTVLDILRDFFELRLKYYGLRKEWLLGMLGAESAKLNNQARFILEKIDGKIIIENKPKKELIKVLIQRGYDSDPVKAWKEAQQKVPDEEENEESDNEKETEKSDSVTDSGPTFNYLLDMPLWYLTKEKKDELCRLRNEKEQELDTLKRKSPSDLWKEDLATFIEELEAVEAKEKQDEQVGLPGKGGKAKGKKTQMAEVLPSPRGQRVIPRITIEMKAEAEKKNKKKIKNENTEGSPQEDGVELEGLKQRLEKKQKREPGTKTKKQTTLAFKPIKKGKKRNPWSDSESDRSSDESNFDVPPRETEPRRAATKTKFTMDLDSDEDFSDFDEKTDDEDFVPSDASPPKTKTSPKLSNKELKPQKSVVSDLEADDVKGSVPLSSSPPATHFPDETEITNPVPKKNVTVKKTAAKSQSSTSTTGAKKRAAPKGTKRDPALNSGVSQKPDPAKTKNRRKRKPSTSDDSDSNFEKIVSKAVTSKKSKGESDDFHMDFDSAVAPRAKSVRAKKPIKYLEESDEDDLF", "assay": "topoisomerase II cleavage complex assay", "type": "biochemical", "experimental": "Figure 2 Poison activity of the hybrid compounds. Agarose gel electrophoresis of plasmid DNA incubated in the absence (no enzyme) or presence of 1 U of topoII containing either 1% DMSO as control vehicle (no enzyme and topoII lanes) or 200 μM compound. Labels are shown above each lane. Numbers at the bottom correspond to the normalized intensity of the linear form (FIII). Plasmid forms are indicated by the arrow-points on the right: supercoiled (FI), nicked (FII), and linear (FIII).\nPoison activity of the compounds was evaluated using a cleavage complex assay (Inspiralis) as described previously.[60] Compounds were tested at a fixed concentration of 200 μM in the presence of 1 U of topoisomerase II and 500 ng of […] plasmid at 37 °C for 6 min. Final DMSO concentration in the assay was 1%. Reaction products were subjected to electrophoresis in a 1% agarose gel, stained with SYBR Safe DNA stain, and DNA bands were visualized and quantified as described above."}, "[3]": {"tested_on": "A549 cells", "assay": "cell viability MTT assay, A549", "type": "cell-based, human", "conditions": "mean ± SD of two experiments, read-out: A549 antiproliferative activity IC50", "experimental": "as §1, §2"}, "[4]": {"assay": "aqueous thermodynamic solubility", "type": "physicochemical", "conditions": "PBS pH 7.4, 24 h, 25°C", "experimental": "3. Aqueous t herm odynam ic solu bili ty\nThe thermodynamic solubility of 3f was determined by addition of Phosphate Buffered Saline (PBS) at pH 7. 4 to an exces s of solid compound.\nThe assay was performed by incubation of an aliquot of 2. 5mg of test compound in 500µL of PBS at pH 7. 4. The suspension was shaken at 300 RPM for 24h at 25°C. At the end of the incubation period, the saturated solution was filtered and analyzed by UPLC/MS for the quantification of dissolved compound (in µM) by UV at a specific wavelength ( λmax of the test compound). The analyses were performed on a Waters ACQUITY UPLC/MS SQD system equipped with an ESI ion source. The analyses were run on an ACQUITY UPLC BEH C 18 column (50x2. 1mmI D, particle size 1. 7µm) with a VanGuard BEH C 18 pr e-column (5x2. 1mmID, particle size 1. 7µm), using H 2O + 0. 1% HCOOH (A) and CH 3CN + 0. 1% HCOOH (B) as mobile phase.\n4. Plasm a Protei n Bindi ng\nThe assay was conducted in triplicate in human and mouse plasma. An appropriate volume of plasma was spiked with a known amount of 10mM DMSO stock solution of the test compound, thus reaching the incubation concentrations of 0. 5, 1 and 5 µM. […] At this point, the supernatants were ready for injections in the UPLC -MS/ MS system. […] Plasma protein binding was calculated applying appropriate corrections to compensate for dilutions during sampling."}}, "note": "Like-named read-outs stand apart in the source and are kept apart here.", "data": [{"smiles": "O=C(Nc1cccc(OC(F)(F)F)c1)c1c(O)n(-c2ccccc2)c(=S)n(-c2ccccc2)c1=O", "note": "[3f, 6-Hydroxy-4-oxo-1,3-diphenyl-2-thioxo-N-(3-(trifluoromethoxy)phenyl)-1,2,3,4-tetrahydropyrimidine-5-carboxamide]", "values": [{"measurement": "IC50", "setting": "[1]", "result": "3.8 ± 0.3", "unit": "µM"}, {"measurement": "IC50", "setting": "[1]; Homo sapiens, HeLa", "result": "< 5", "unit": "µM"}, {"measurement": "mode of action in cleavage complex formation assay", "setting": "[2]; 200 μM compound, 1 U topoII, plasmid DNA", "result": "confirmed to be poisons"}, {"measurement": "poison efficacy, fold better than ARN16267", "setting": "[2]; 200 μM concentration, linear form (FIII) intensity", "result": "about 1.5 fold"}, {"measurement": "IC50", "setting": "[3]; A549 lung adenocarcinoma cells", "result": "3.1 ± 0.1", "unit": "µM"}, {"measurement": "IC50", "setting": "[3]; Homo sapiens, A549, A549 lung adenocarcinoma cells", "result": "< 5", "unit": "µM"}, {"measurement": "solubility thermodynamic at 24 h", "setting": "[4]", "result": 30, "unit": "µM"}]}]}
